Test results: paper PMC11930985 (Nature Communications, 2025)
In brackets after ≈: the same amount, converted by molar mass. Several values for one entry are separate records, joined by “and”; a condition that tells them apart may be missing. Equal entries are not always repeated. Where two headings read alike, the source gives them in different places.

Columns and labels:
AML/MDS patients = test: Dose-limiting toxicity assessment, 3+3 dose escalation; format: in vivo
Excerpt: The study consisted of a phase 1b dose escalation, followed by a phase 2a cohort expansion. […] Due to the introduction of an enhanced formulation, the study was extended with a second dose escalation cohort following a 3 + 3 study design, also with expansion at the selected dose (Fig. 1).
The conventional 3 + 3 study design gives a 71% chance of escalation if the true but unknown rate of DLT is 20%, and <50% chance of escalation if the true but unknown rate of DLT is >30%. […] Based on a one-sided, within-group test of proportions comparing an anticipated ORR of >20% against the null hypothesis rate of 5%, with power 80% and type I error 0.2 (suitable as evidence of a trend worthy of future study), a sample size of up to 14 evaluable patients was selected for B2. On the same basis, for B5 an initial sample size of 14 relapsed and 14 refractory AML patients was planned. However, upon regulatory review by the FDA, this was reduced to 20 R/R AML patients with 4 refractory AML patients. For this early-stage study, the efficacy analyses are secondary endpoints, and no account was taken of the multiplicity inherent in the assessment of several, presumably non-independent criteria, for ORR.

pERK1/2 T202/Y204 = test: CyTOF maximal inhibition in Undefined/Immature Myeloid cells: pERK1/2; format: in vivo, human
Excerpt: Pharmacodynamic endpoints included the measurement of inhibition of pAXL, pERK, pAKT, pS6 and pSTAT1/3/5 in blast cells (defined as cells with abnormal surface marker expression as compared to healthy donor peripheral blood mononuclear cells and undefined/immature myeloid cells (defined as cells carrying myeloid markers but lacking distinguishing terminal differentiation markers). Mass cytometry time of flight (CyTOF) was used for the determination of the pharmacodynamic markers using a previously validated and tested panel of mass-tagged antibodies[39],[40]. The antibodies in the panel are listed in Supplementary Table 5. Briefly, fixed leukocytes from peripheral blood were barcoded using a 20-plex metal barcoding kit (Standard Biotools, Cell-ID 201060) according to manufacturer’s protocol, allowing all the samples from a single individual to be stained and analysed in parallel. All analysis runs included barcoded peripheral blood mononuclear cells (PBMCs) from at least one healthy donor and an identical barcoded reference sample (mix of PBMCs from six healthy donors). […]
For each population, marker, and sample, the 95th percentile of the non-transformed expression values was calculated. […]

Tie2 = molecular target: Tie2; parameters: method as in Investigator's Brochure (IB) version 5.0; conditions: ref Investigator's Brochure (IB) version 5.0; cited from earlier work
Ret [1] = molecular target: Ret; parameters: method as in Investigator's Brochure (IB) version 5.0; conditions: ref Investigator's Brochure (IB) version 5.0; cited from earlier work
Flt1 [2] = molecular target: Flt1; parameters: method as in Investigator's Brochure (IB) version 5.0; conditions: ref Investigator's Brochure (IB) version 5.0; cited from earlier work
Ret [3] = tested on: Ret; parameters: method as in Investigator's Brochure (IB) version 5.0; conditions: ref Investigator's Brochure (IB) version 5.0; cited from earlier work; remark: listed apart in the source
Flt1 [4] = tested on: Flt1; parameters: method as in Investigator's Brochure (IB) version 5.0; conditions: ref Investigator's Brochure (IB) version 5.0; cited from earlier work; remark: listed apart in the source
[5] = tested on: bone marrow cells from patients with primary AML; parameters: method as in Ben-Batalla et al., 2013; conditions: ref Ben-Batalla et al., 2013; cited from earlier work
human lymphocytes = tested on: human lymphocytes; parameters: method as in Investigator's Brochure (IB) version 5.0; conditions: ref Investigator's Brochure (IB) version 5.0; cited from earlier work
healthy male subjects = tested on: healthy male subjects; parameters: method as in Protocol BGBC001; conditions: ref Protocol BGBC001, cited from earlier work

## Nc1nc(Nc2ccc3c(c2)CC[C@@H](N2CCCC2)CC3)nn1-c1cc2c(nn1)-c1ccccc1CCC2 [Bemcentinib]
AML/MDS patients; DE cohort
  Formal criteria for a maximum tolerated dose: not met
AML/MDS patients; human, in vivo, 3 weeks
  Recommended phase 2 dose (loading/maintenance): 400/200
AML/MDS patients; in vivo
  Dose-limiting toxicities (DLT) observed: Three
pERK1/2 T202/Y204; Homo sapiens, Undefined/Immature Myeloid cells, N = 12 patients, read-out: EC50 (± standard error), pERK1/2 T202/Y204 inhibition
  EC50: 0.0873 ± 0.0017 µg/mL (≈ 0.172 µM)
pERK1/2 T202/Y204; Supplementary Figure 1c, individual patients
  Maximum inhibition (percent) pERK1/2 (T202/Y204): 87.1% and 71.6% and 100% and 8.8% and 98.1% and 30.4% and 66.9% and 0% and 5.7% and 94.5% and 39.2% and 69.3%
Tie2
  Kd: 270 nM
Ret [1]
  Kd: 73 nM
Flt1 [2]
  Kd: 400 nM
Ret [3]
  IC50: 38 nM
Flt1 [4]
  IC50: 40 nM
[5]
  Patients whose bone marrow cells were sensitive to BGB324: 7 out of 11
  Sensitization of primary patient AML cells to Ara-C: sensitizes
Human lymphocytes
  In vitro mammalian cell cytogenetic study result: negative
Healthy male subjects; 50 mg, 4 fasted, 1 fed
  Non-Cardiac Chest Pain, Maximum Grade (CTCAE version 4.0): One
Healthy male subjects; 100 mg, 4 fasted, 2 fed
  Orthostatic hypotension, Maximum Grade (CTCAE version 4.0): One
Healthy male subjects; 150 mg, 4 fasted, 1 fed
  Abdominal Distension x 2, Maximum Grade (CTCAE version 4.0): One
Healthy male subjects; 400 mg, 4 fasted, 2 fed
  Diarrhoea, Maximum Grade (CTCAE version 4.0): One
Healthy male subjects; 600 mg, 4 fasted
  Diarrhoea, Maximum Grade (CTCAE version 4.0): One
  Flatulence, Maximum Grade (CTCAE version 4.0): One
  Nausea x 2, Maximum Grade (CTCAE version 4.0): One
Healthy male subjects; 1000 mg, 4 fasted
  Nausea, Maximum Grade (CTCAE version 4.0): One
Healthy male subjects; 1500 mg, 4 fasted
  Diarrhoea, Maximum Grade (CTCAE version 4.0): One
  Dizziness, Maximum Grade (CTCAE version 4.0): One
  Headache, Maximum Grade (CTCAE version 4.0): One
  Nausea, Maximum Grade (CTCAE version 4.0): Two
  Vomiting, Maximum Grade (CTCAE version 4.0): Two
Healthy male subjects; single dose 50-1500 mg
  Serious adverse events (SAE): No serious adverse events
